Source: ChEMBL document CHEMBL3112509, “Synthesis and antimicrobial activity of (1,4-phenylene)bis(arylsulfonylpyrazoles and isoxazoles)” (2014)
Values after ≈ are worked out from the molar mass of the structure shown. Active and inactive are the calls of the source. No cut-off for these calls is given here.

How the values were obtained:
Format in all cases: functional
Klebsiella pneumoniae [1] = assay: Antibacterial activity against Klebsiella pneumoniae at 50 ug/well after 24 hrs by agar well diffusion method; settings: read-out: DIZ
Bacillus subtilis [2] = assay: Antibacterial activity against Bacillus subtilis at 100 ug/well after 24 hrs by agar well diffusion method; settings: read-out: DIZ
Staphylococcus aureus [3] = assay: Antibacterial activity against Staphylococcus aureus at 100 ug/well after 24 hrs by agar well diffusion method; settings: read-out: DIZ
Pseudomonas aeruginosa [4] = assay: Antibacterial activity against Pseudomonas aeruginosa at 100 ug/well after 24 hrs by agar well diffusion method; settings: for zone of inhibition at 100 µg/disc: read-out: DIZ
Bacillus subtilis [5] = assay: Antibacterial activity against Bacillus subtilis at 50 ug/well after 24 hrs by agar well diffusion method; settings: read-out: DIZ
Pseudomonas aeruginosa [6] = assay: Antibacterial activity against Pseudomonas aeruginosa at 50 ug/well after 24 hrs by agar well diffusion method; settings: for zone of inhibition at 50 µg/disc: read-out: DIZ
Pseudomonas aeruginosa [7] = assay: Antibacterial activity against Pseudomonas aeruginosa after 24 hrs by broth dilution test
Bacillus subtilis [8] = assay: Antibacterial activity against Bacillus subtilis after 24 hrs by broth dilution test
Klebsiella pneumoniae [9] = assay: Antibacterial activity against Klebsiella pneumoniae after 24 hrs by broth dilution test
Klebsiella pneumoniae [10] = assay: Antibacterial activity against Klebsiella pneumoniae at 100 ug/well after 24 hrs by agar well diffusion method; settings: read-out: DIZ
Staphylococcus aureus [11] = assay: Antibacterial activity against Staphylococcus aureus after 24 hrs by broth dilution test
Staphylococcus aureus [12] = assay: Antibacterial activity against Staphylococcus aureus at 50 ug/well after 24 hrs by agar well diffusion method; settings: read-out: DIZ
Aspergillus niger [13] = assay: Antifungal activity against Aspergillus niger at 50 ug/well after 48 hrs by agar well diffusion method; settings: read-out: DIZ
Penicillium chrysogenum [14] = assay: Antifungal activity against Penicillium chrysogenum at 100 ug/well after 48 hrs by agar well diffusion method; settings: read-out: DIZ
Aspergillus niger [15] = assay: Antifungal activity against Aspergillus niger at 100 ug/well after 48 hrs by agar well diffusion method; settings: read-out: DIZ
Penicillium chrysogenum [16] = assay: Antifungal activity against Penicillium chrysogenum at 50 ug/well after 48 hrs by agar well diffusion method; settings: read-out: DIZ

| SMILES | zone of inhibition at 50 µg/disc (Klebsiella pneumoniae [1]) [mm] | zone of inhibition at 100 µg/disc (Bacillus subtilis [2]) [mm] | zone of inhibition at 100 µg/disc (Staphylococcus aureus [3]) [mm] | zone of inhibition at 100 µg/disc (Pseudomonas aeruginosa [4]) [mm] | zone of inhibition at 50 µg/disc (Bacillus subtilis [5]) [mm] | zone of inhibition at 50 µg/disc (Pseudomonas aeruginosa [6]) [mm] | MIC (Pseudomonas aeruginosa [7]) [mg/L] | MIC (Bacillus subtilis [8]) [mg/L] | MIC (Klebsiella pneumoniae [9]) [mg/L] | zone of inhibition at 100 µg/disc (Klebsiella pneumoniae [10]) [mm] | MIC (Staphylococcus aureus [11]) [mg/L] | zone of inhibition at 50 µg/disc (Staphylococcus aureus [12]) [mm] | zone of inhibition at 50 µg/disc (Aspergillus niger [13]) [mm] | zone of inhibition at 100 µg/disc (Penicillium chrysogenum [14]) [mm] | zone of inhibition at 100 µg/disc (Aspergillus niger [15]) [mm] | zone of inhibition at 50 µg/disc (Penicillium chrysogenum [16]) [mm] | diameter of the inhibition zone (DIZ) (Pseudomonas aeruginosa [4]) | diameter of the inhibition zone (DIZ) (Pseudomonas aeruginosa [6]) |
| --- | --- | --- | --- | --- | --- | --- | --- | --- | --- | --- | --- | --- | --- | --- | --- | --- | --- | --- |
| O=C(N[C@H](CO)[C@H](O)c1ccc([N+](=O)[O-])cc1)C(Cl)Cl [CHLORAMPHENICOL] | 40 | 38 | 35 | 30 | 34 | 27 | 6.25 (≈ 19.3 µM) | 6.25 (≈ 19.3 µM) | 12.5 (≈ 38.7 µM) | 42 | 6.25 (≈ 19.3 µM) | 33 | – | – | – | – | – | – |
| COc1ccc(-c2noc(-c3ccc(-c4onc(-c5ccc(OC)cc5)c4S(=O)(=O)c4ccccc4)cc3)c2S(=O)(=O)c2ccccc2)cc1 | 18 | 28 | 23 | 18 | 26 | 16 | – | – | – | 21 | – | 20 | 27 | 29 | 30 | 26 | – | – |
| COc1ccc(-c2noc(-c3ccc(-c4onc(-c5ccc(OC)cc5)c4S(=O)(=O)c4ccc(Cl)cc4)cc3)c2S(=O)(=O)c2ccc(Cl)cc2)cc1 | 22 | 32 | 26 | 20 | 30 | 17 | – | – | – | 24 | – | 23 | 23 | 30 | 26 | 27 | – | – |
| O=S(=O)(c1ccc(Cl)cc1)C1C(c2ccc(Cl)cc2)=NN(c2ccccc2)C1c1ccc(C2C(S(=O)(=O)c3ccc(Cl)cc3)C(c3ccc(Cl)cc3)=NN2c2ccccc2)cc1 (configuration not stated) | 10 | 16 | 14 | – | 13 | – | – | – | – | 13 | – | 11 | 13 | 20 | 15 | 18 | inactive | inactive |
| O=S(=O)(c1ccccc1)C1C(c2ccc(Cl)cc2)=NOC1c1ccc(C2ON=C(c3ccc(Cl)cc3)C2S(=O)(=O)c2ccccc2)cc1 (configuration not stated) | 11 | 20 | 16 | 12 | 18 | 10 | – | – | – | 13 | – | 14 | 15 | 22 | 17 | 20 | – | – |
| Cc1ccc(S(=O)(=O)C2C(c3ccc(Cl)cc3)=NN(c3ccccc3)C2c2ccc(C3C(S(=O)(=O)c4ccc(C)cc4)C(c4ccc(Cl)cc4)=NN3c3ccccc3)cc2)cc1 (configuration not stated) | 8 | 13 | 11 | – | 11 | – | – | – | – | 10 | – | 9 | 12 | 16 | 14 | 14 | inactive | inactive |
